Measured values taken from US6207404A, “Coumarin-based CYP3A fluorescent assay reagents” (Gentest Corporation, priority 1999, dated 2001).
Values belong to the compound of their own block, whether it stands above or below them.

What was measured:
[1] = Quantum yield of the fluorescent product; type: physicochemical; details: relative to the product of BzRes
[2] = target: T1, human CYP3A4 (Homo sapiens, UniProt P08684); experiment: biochemical; details: 37° C., 20 minutes
[3] = tested on: human CYP2B6; details: Code et al. 1997; Morse and Lu 1998; cited from earlier work
[4] = tested on: other human P450s; details: Code et al. 1997; Morse and Lu 1998; cited from earlier work
[5] = target: T1, human CYP3A4; experiment: Enzyme kinetics of substrate turnover with cDNA-expressed CYP3A4 (fluorometric); type: biochemical
Method: The evaluation of compounds of Formula I were initially performed by measuring the kinetics of turnover using cDNA-expressed CYP3A4. In most instances, Vmax and Km values are important for the optimization of the assay conditions and for setting the parameters for inhibition experiments. Fluorometric assays for the turnover of compounds of Formula I by CYP3A4 were performed based on a modification of the method by Crespi et al. Anal Biochem. 248, 188-190, (1997), (described below).
Example Compound I. Assays were conducted in 96 well microtiter plates (Corning COSTAR, cat. no. 3915). The substrate, compound I, was prepared in acetonitrile. After cofactors addition, the plates were prewarmed to 37° C. Incubations were initiated by the addition of prewarmed buffer and enzyme. The enzymes were commercially available, baculovirus/insect cell expressed human CYP3A4 (SUPERSOMES®, GENTEST Corporation). The amount of enzyme added per well was 1 pmole. […] Fluorescence per well was measured using a BMG FLUOstar Model 403 plate scanner controlled with an IBM-compatible computer. The metabolite was measured using an excitation wavelength of 410 nm and emission wavelength of 538 nm. Data was exported and analyzed using an Excel spreadsheet. The activity was quantified by comparing to a standard curve of 7-hydroxy-4-trifluoromethyl coumarin.

[6] = tested on: panel of cDNA-expressed human P450 enzymes; experiment: Selectivity of dealkylation in a panel of cDNA-expressed human P450 enzymes; type: biochemical
From the text: The selectivity of various P450 isoforms for dealkylation of compound I was examined using a panel of commercially available human cDNA-expressed enzymes. A substrate that is selective for a single P450 isoform (substrate is catalytically turned over by a single P450 isoform) is a desirable trait in that its activity may be examined within a heterogeneous mixture of enzymes, for example, in human liver microsomes. […] Compound I is therefore a more useful substrate for probing CYP3A activity in a heterogeneous mixture than the previous substrate BzRes. These advantages permit the specific detection of low levels of a preselected cytochrome P450 enzyme (e.g., 3A4) contained in various types of samples, e.g., tissue samples, microsomes, and so forth.
Example Compound I. Assays were conducted as described in (1) above except: incubation time was 20 min.; enzymes were commercially available, baculovirus/insect cell expressed human P450s (SUPERSOMES®, GENTEST Corporation); and the amount of enzyme added per well was 10 pmole with the exception of 2.5 pmole for CYP3A enzymes.

[7] = Solubility noted in enzyme kinetics table; type: physicochemical; details: at >200 uM
[8] = target: T1, human CYP3A4
[9] = tested on: panel of cDNA-expressed human P450 enzymes; details: Ono et al. (1996); cited from earlier work
[10] = tested on: CYP3A4; details: in words; Crespi et al. 1997; cited from earlier work

T1 sequence (P08684 whole entry): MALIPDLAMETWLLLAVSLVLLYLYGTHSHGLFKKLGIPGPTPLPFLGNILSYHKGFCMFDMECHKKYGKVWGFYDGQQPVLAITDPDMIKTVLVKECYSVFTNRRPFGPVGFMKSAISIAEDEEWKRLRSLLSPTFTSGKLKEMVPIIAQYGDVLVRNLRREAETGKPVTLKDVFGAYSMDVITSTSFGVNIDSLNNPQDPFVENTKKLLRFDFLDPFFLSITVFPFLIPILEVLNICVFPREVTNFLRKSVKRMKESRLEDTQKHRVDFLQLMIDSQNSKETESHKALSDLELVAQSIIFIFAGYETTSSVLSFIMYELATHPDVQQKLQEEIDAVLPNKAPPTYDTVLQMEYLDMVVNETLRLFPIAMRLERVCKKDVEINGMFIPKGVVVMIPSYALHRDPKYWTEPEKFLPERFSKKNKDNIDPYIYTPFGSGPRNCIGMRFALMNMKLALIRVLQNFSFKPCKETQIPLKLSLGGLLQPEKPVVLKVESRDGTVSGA

- quantum yield of product relative to the product of benzyloxyresorufin [1]: greater quantum yield
Compound: O=c1cc(C(F)(F)F)c2ccc(O)cc2o1 [Compound II, 7-hydroxy-4-trifluoromethylcoumarin]

Compound: CC[C@H]1OC(=O)[C@H](C)[C@@H](O[C@H]2C[C@@](C)(OC)[C@@H](O)[C@H](C)O2)[C@H](C)[C@@H](O[C@@H]2O[C@H](C)C[C@H](N(C)C)[C@H]2O)[C@](C)(O)C[C@@H](C)C(=O)[C@H](C)[C@@H](O)[C@]1(C)O [Erythromycin]
- IC50 ([2]; CYP3A4 IC50, substrate BzRes, substrate BzRes): 1700 nM
- IC50 ([2]; CYP3A4 IC50, substrate I, substrate compound I (100 uM)): 4070 nM

Compound: CCOc1ccc2c(C(F)(F)F)cc(=O)oc2c1 [7-Ethoxy-4-trifluoromethylcoumarin]
- O-dealkylation by human CYP2B6 [3]: O-dealkylated
- O-dealkylation by other human P450s [4]: O-dealkylated

- Vmax (at 40 uM) ([5]; cDNA-expressed CYP3A4, at 40 uM substrate): 1.5 min⁻¹
- Km at 0.75 h ([5]; human, cDNA-expressed CYP3A4, 1 pmole/well, 37° C., 45 minutes): > 200 µM
- selectivity of dealkylation in panel of human P450 enzymes (FIG. 1) ([6]; 20 min, 10 pmole/well (2.5 pmole for CYP3A enzymes)): selective for CYP3A4
- rank of CYP1A1 in dealkylation of the substrate ([6]; CYP1A1): second best enzyme
- solubility (remark to Km >200 uM) [7]: exceeds solubility
- IC50 values with compound I as the substrate compared with BzRes [8]: tend to yield lower IC50 values
Compound: O=c1cc(C(F)(F)F)c2ccc(OCc3ccccc3)cc2o1 [Compound I, 7-Benzyloxy-4-trifluoromethylcoumarin]

Compound: O=c1ccc2nc3ccc(OCc4ccccc4)cc3oc-2c1 [Benzyloxyresorufin, 7-benzyloxyresorufin]
- metabolism by other human cytochromes P450 [9]: significantly metabolized by other human cytochromes P450
- enzymatic turnover [10]: low enzymatic turnover
- specificity [10]: poor specificity
